Measurements as given in ChEMBL document CHEMBL1150566, “Pitipeptolides A and B, new cyclodepsipeptides from the marine cyanobacterium Lyngbya majuscula” (J Nat Prod, 2001).
Values after ≈ are worked out from the molar mass of the structure shown. Active and inactive are the calls of the source. The calls are words filed in the database; no cut-off is given here. Numbered stars: 1 amine (or outer) side, 2 acyl side, 3 side chain; on linkers, the order of the positions; unused ones are H or OH. Bridge positions count the residues as written; N and C are the ends. Square brackets hold non-standard residues; d marks the D form. Peptide text beside a SMILES is read from it. X1 = C=CCCC[C@H](O[*:2])C(C)(C)C(=O)[*:1]; X2 = C#CCCC[C@H](O[*:2])C(C)(C)C(=O)[*:1]; Hmpa(2S,3S) = CC[C@H](C)[C@H](O)C(=O)O; NMeF = CN[C@@H](Cc1ccccc1)C(=O)O

Legend:
[1] = Stimulation of elastase activity at 50 ug/ml relative to control
[2] = system: Mycobacterium tuberculosis; experiment: Antimycobacterial activity against Mycobacterium tuberculosis ATCC 25177 at 100 ug/disk by disk diffusion susceptibility assay; format: functional; conditions: read-out: DIZ
[3] = molecular target: Plasminogen (Homo sapiens) (UniProt P00747); experiment: Inhibition of plasmin
Chain of Plasminogen (Homo sapiens) (P00747 97-580 limits assumed): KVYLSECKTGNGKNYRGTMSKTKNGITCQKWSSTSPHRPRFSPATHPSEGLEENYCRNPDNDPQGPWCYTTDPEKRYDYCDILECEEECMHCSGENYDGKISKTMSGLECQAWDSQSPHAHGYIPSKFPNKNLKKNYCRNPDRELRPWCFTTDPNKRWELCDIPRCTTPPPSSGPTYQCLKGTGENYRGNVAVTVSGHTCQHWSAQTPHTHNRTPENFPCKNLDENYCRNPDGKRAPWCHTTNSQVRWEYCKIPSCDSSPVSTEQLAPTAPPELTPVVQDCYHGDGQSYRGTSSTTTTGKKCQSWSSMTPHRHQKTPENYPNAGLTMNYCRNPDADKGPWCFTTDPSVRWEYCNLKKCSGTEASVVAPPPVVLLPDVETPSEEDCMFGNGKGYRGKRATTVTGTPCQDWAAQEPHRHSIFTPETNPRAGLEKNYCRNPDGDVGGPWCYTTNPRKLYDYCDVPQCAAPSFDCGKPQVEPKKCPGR
Chain of Plasminogen (Homo sapiens) (P00747 581-810 limits assumed): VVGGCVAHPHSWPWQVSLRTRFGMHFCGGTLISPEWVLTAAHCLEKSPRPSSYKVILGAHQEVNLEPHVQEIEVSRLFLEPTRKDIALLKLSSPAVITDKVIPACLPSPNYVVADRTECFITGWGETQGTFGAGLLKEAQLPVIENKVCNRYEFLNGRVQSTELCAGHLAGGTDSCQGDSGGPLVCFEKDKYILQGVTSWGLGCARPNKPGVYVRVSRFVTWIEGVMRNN

[4] = system: Mycobacterium tuberculosis; experiment: Antimycobacterial activity against Mycobacterium tuberculosis ATCC 25177 at 25 ug/disk by disk diffusion susceptibility assay; format: functional; conditions: read-out: DIZ
[5] = Inhibition of trypsin
[6] = Inhibition of elastase
Papain (Carica papaya) = molecular target: T1, Papain (Carica papaya) (UniProt P00784); experiment: Inhibition of papaya papain
T1 sequence (whole entry): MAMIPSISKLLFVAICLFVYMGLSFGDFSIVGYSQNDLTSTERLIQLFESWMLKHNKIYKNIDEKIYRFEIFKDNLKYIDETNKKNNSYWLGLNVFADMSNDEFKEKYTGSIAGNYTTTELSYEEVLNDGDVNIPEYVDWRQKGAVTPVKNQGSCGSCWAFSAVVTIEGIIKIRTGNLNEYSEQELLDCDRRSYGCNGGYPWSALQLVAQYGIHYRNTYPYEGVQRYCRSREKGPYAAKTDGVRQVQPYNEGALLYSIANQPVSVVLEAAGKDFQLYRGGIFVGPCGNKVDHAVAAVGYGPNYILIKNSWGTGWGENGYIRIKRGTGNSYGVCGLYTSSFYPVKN

[7] = Inhibition of chymotrypsin
[8] = system: Mycobacterium tuberculosis; experiment: Antimycobacterial activity against Mycobacterium tuberculosis ATCC 35818 at 100 ug/disk by disk diffusion susceptibility assay; format: functional; conditions: read-out: DIZ
[9] = molecular target: Prothrombin (Homo sapiens) (UniProt P00734); experiment: Inhibition of thrombin
[10] = system: Mycobacterium tuberculosis; experiment: Antimycobacterial activity against Mycobacterium tuberculosis ATCC 35818 at 25 ug/disk by disk diffusion susceptibility assay; format: functional; conditions: read-out: DIZ
LoVo = experiment: Cytotoxicity against human LoVo cells; format: functional, cell-based
[11] = system: Mycobacterium tuberculosis; experiment: Antimycobacterial activity against Mycobacterium tuberculosis ATCC 35818 at 1 ug/disk by disk diffusion susceptibility assay; format: functional; conditions: read-out: DIZ
[12] = system: Mycobacterium tuberculosis; experiment: Antimycobacterial activity against Mycobacterium tuberculosis ATCC 25177 at 1 ug/disk by disk diffusion susceptibility assay; format: functional; conditions: read-out: DIZ
[13] = system: Mycobacterium tuberculosis; experiment: Antimycobacterial activity against Mycobacterium tuberculosis ATCC 25177 at 5 ug/disk by disk diffusion susceptibility assay; format: functional; conditions: read-out: DIZ
[14] = system: Mycobacterium tuberculosis; experiment: Antimycobacterial activity against Mycobacterium tuberculosis ATCC 35818 at 5 ug/disk by disk diffusion susceptibility assay; format: functional; conditions: read-out: DIZ

Structure (SMILES) | fold change (FC) [1] | zone of inhibition at 100 µg/disc [2] [mm] | Activity [3] | zone of inhibition at 25 µg/disc [4] [mm] | Activity [5] | Activity [6] | Activity (Papain (Carica papaya)) | Activity [7] | zone of inhibition at 100 µg/disc [8] [mm] | Activity [9] | zone of inhibition at 25 µg/disc [10] [mm] | IC50 (LoVo) [µg/mL] | zone of inhibition at 1 µg/disc [11] [mm] | zone of inhibition at 1 µg/disc [12] [mm] | zone of inhibition at 5 µg/disc [13] [mm] | zone of inhibition at 5 µg/disc [14] [mm]
C#CCCC[C@@H]1OC(=O)CNC(=O)[C@H]([C@@H](C)CC)NC(=O)[C@@H]2CCCN2C(=O)[C@H]([C@@H](C)CC)OC(=O)[C@H](Cc2ccccc2)N(C)C(=O)[C@H](C(C)C)NC(=O)C1(C)C [PITIPEPTOLIDE A] (V[NMeF][Hmpa(2S,3S)]PIG; linker N-C via X2) | 2.76 | 25 | inactive | 10 | inactive | inactive | inactive | inactive | 15 | inactive | 9 | 2.25 (≈ 2.78 µM) | – | – | – | –
C=CCCC[C@@H]1OC(=O)CNC(=O)[C@H]([C@@H](C)CC)NC(=O)[C@@H]2CCCN2C(=O)[C@H]([C@@H](C)CC)OC(=O)[C@H](Cc2ccccc2)N(C)C(=O)[C@H](C(C)C)NC(=O)C1(C)C [PITIPEPTOLIDE B] (V[NMeF][Hmpa(2S,3S)]PIG; linker N-C via X1) | 2.55 | 30 | inactive | 15 | inactive | inactive | inactive | inactive | 15 | inactive | 10 | 1.95 (≈ 2.41 µM) | – | – | – | –
CN[C@@H]1[C@H](O[C@H]2[C@H](O[C@H]3[C@H](O)[C@@H](O)[C@H](N=C(N)N)[C@@H](O)[C@@H]3N=C(N)N)O[C@@H](C)[C@]2(O)C=O)O[C@@H](CO)[C@H](O)[C@H]1O [STREPTOMYCIN] | – | – | – | 50 | – | – | – | – | – | – | 55 | – | 10 | 0 | 15 | 33
